The values that follow come from PubChem BioAssay AID2060501 (Molecular Pharmacology Branch, DTP, NCI, 2025).

In this test the test system is 282377-053-R-J1-PDC complex spheroids, viability. The test is described as follows: Anticancer human tumor 282377-053-R-J1-PDC patient-derived colon adenocarcinoma cell line growth inhibition [GQUAD]. The following applies: for viability, T/C: stronger effect = lower value. From the text: DNA G-quadruplex Stabilizer Agents in Combinations in Complex Spheroids
A high-throughput screen of multi-cell type tumor spheroids was designed to identify active combinations of DNA G-quadruplex stabilizer agents and targeted small molecules. Complex spheroids include a stromal component modeled by human endothelial cells (HUVEC) and fibroblasts modeled by human mesenchymal stem cells (MSCs). The concentration ranges selected for each drug and investigational agent were based upon clinically achievable concentrations if the clinical Cmax of the agent was known.
Compounds. The drugs and investigational agents: pidnarulex (CX-5461; NSC782164), APTO-253 (NSC789042), BRACO-19 (NSC847499), peposertib (NSC802822), ceralasertib (NSC780249), elimusertib (NSC800525), camonsertib (NSC841442), AZD-1390 (NSC803789), olaparib (NSC753686), talazoparib (NSC767125), ART-558 (NSC835418), sotorasib (NSC818433), MRTX-1133 (NSC836407), SN-38 (NSC673596), topotecan (NSC609699), etoposide (NSC141540), doxorubicin (NSC123127), gemcitabine (NSC613327), 5-fluorouracil (NSC19893), paclitaxel (NSC125973), vemurafenib (NSC761431), panobinostat (NSC761190), R-306465 (JNJ-16241199; NSC773264), adavosertib (NSC754352), TP-3654 (NSC805149), carboplatin (NSC241240), KSQ-4279 (NSC840948), and staurosporine (NSC755774) were obtained from the National Cancer Institute (NCI) Developmental Therapeutics Program Chemical Repository (34). The FDA-approved anticancer drug set is available from the NCI Developmental Therapeutics Program. […] The stock solutions were prepared in dimethyl sulfoxide (DMSO, Sigma-Aldrich, St. Louis, MO, cat. D2650) at 800-fold the tested concentration and stored at -70 degrees C prior to their use. All drugs and investigational agents were tested over a range starting from a high concentration at or near the clinical Cmax and decreasing in half-log increments. If the clinical Cmax for an agent had not been determined, the highest concentration tested was 10 microM.
2.3 Cell Culture. All cells were maintained in an incubator at 37 degrees C and 5% CO2 with 95% humidity. The PDC lines were cultured according to standard operating procedures established by the NCI PDMR. All PDCs were thawed and cultured in Matrigel-coated flasks prepared with a working solution of 1X Ham's F-12 nutrient mix, without supplementation (Invitrogen, cat. 11765054), 100 U/mL penicillin-streptomycin (Invitrogen, cat. 15140122), and 2.5% Matrigel (Corning Inc., cat. 354248) for the first three passages. The 857933-349-R-J2-PDC line was cultured in 6C/Colon 1B media, which includes advanced DMEM/F-12 (Thermo Fisher Scientific, cat. 12634028), 10 mM HEPES (Thermo Fisher Scientific, cat. 15630080), 1X GlutaMAX supplement (Thermo Fisher Scientific, cat. 35050061), 0.1 mg/mL primocin (InvivoGen, cat. ant-pm-2), 10% defined fetal bovine serum, heat inactivated (HyClone Laboratories Inc., cat. SH30070.03HI), 50% L-WRN conditioned media (ATCC, cat. CRL-3276), 1.25 mM N-Acetyl-L-cysteine (Sigma-Aldrich, cat. A9165), 10 mM nicotinamide (Sigma-Aldrich, cat. N0636), 1X B-27 supplement (Thermo Fisher Scientific, cat. 17504044), 1X N-2 supplement (Thermo Fisher Scientific, cat. 17502048), 10 microM Y-27632 dihydrochloride (Tocris Bioscience, cat. 1254), and 50 ng/mL human EGF recombinant protein (Thermo Fisher Scientific, cat. PHG0311). The 485176-168-R4-J1-PDC line was cultured in Panc media, which includes all 6C/Colon 1B media components plus 100 ng/mL human FGF-10 (Thermo Fisher Scientific, cat. 100-26), 500 nM SB-431542 (Selleckchem, cat. S1067), and gastrin (Tocris, cat. 3006).
[…]

Several values for one entry are separate records, joined by “and”; a condition that tells them apart may be missing. Identical values can stand only once. Bounds are passed on as bounds.
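Further: spheroids exposed to compounds for 7 days before readout.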
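Wherever viability, T/C is given: percent of vehicle DMSO control viability with 100% = untreated-like growth.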

Take `COc1cc(C2c3cc4c(cc3C(OC3OC5COC(C)OC5C(O)C3O)C3COC(=O)C23)OCO4)cc(OC)c1O` (stereo unspecified) + Cc1[nH]c2ccc(F)cc2c1-c1nc2c3cccnc3c3ncccc3c2[nH]1: the IC50 runs as follows: (curve of first compound, second compound 0.0316 µM) above 10 µM; (curve of first compound, second compound 0.1 µM) above 10 µM; (curve of first compound, second compound 0.316 µM) above 10 µM; (curve of first compound, second compound 1 µM) above 10 µM; (curve of first compound, second compound 3.16 µM) 1.23 µM; (curve of first compound, second compound 10 µM) 0.384 µM. Further, the viability, T/C (second compound 0.0316 µM, first compound 0.0316 µM) was 99.9%; the viability, T/C (second compound 0.0316 µM, first compound 0.1 µM) was 102%; the viability, T/C (second compound 0.0316 µM, first compound 0.316 µM) is 104%; the viability, T/C (second compound 0.0316 µM, first compound 1 µM) was 89%; the viability, T/C (second compound 0.0316 µM, first compound 3.16 µM) is 66.5%; the viability, T/C (second compound 0.0316 µM, first compound 10 µM) is 62.6%. Also, the viability, T/C (second compound 0.1 µM, first compound 0.0316 µM) was 94.3%; the viability, T/C (second compound 0.1 µM, first compound 0.1 µM) was 108%; the viability, T/C (second compound 0.1 µM, first compound 0.316 µM) was 83.5%; the viability, T/C (second compound 0.1 µM, first compound 1 µM) is 98.2%; the viability, T/C (second compound 0.1 µM, first compound 3.16 µM) was 76.4%; the viability, T/C (second compound 0.1 µM, first compound 10 µM) was 70.1%. For the same molecule, the viability, T/C (second compound 0.316 µM, first compound 0.0316 µM) is 102%; the viability, T/C (second compound 0.316 µM, first compound 0.1 µM) was 117%; the viability, T/C (second compound 0.316 µM, first compound 0.316 µM) is 96.2%; the viability, T/C (second compound 0.316 µM, first compound 1 µM) was 105%; the viability, T/C (second compound 0.316 µM, first compound 3.16 µM) is 76.9%; the viability, T/C (second compound 0.316 µM, first compound 10 µM) was 54.2%. In addition, the viability, T/C reads like this: (second compound 1 µM, first compound 0.0316 µM) 113%; (second compound 1 µM, first compound 0.1 µM) 95.5%; (second compound 1 µM, first compound 0.316 µM) 95.2%; (second compound 1 µM, first compound 1 µM) 94.1%; (second compound 1 µM, first compound 3.16 µM) 72%; (second compound 1 µM, first compound 10 µM) 54.4%. Further, the viability, T/C was 72.5% (second compound 3.16 µM, first compound 0.0316 µM); 85.6% (second compound 3.16 µM, first compound 0.1 µM); 73.5% (second compound 3.16 µM, first compound 0.316 µM); 56% (second compound 3.16 µM, first compound 1 µM); 24.8% (second compound 3.16 µM, first compound 3.16 µM); 23.2% (second compound 3.16 µM, first compound 10 µM). The viability, T/C by setting is: (second compound 10 µM, first compound 0.0316 µM) 52.7%; (second compound 10 µM, first compound 0.1 µM) 44%; (second compound 10 µM, first compound 0.316 µM) 63.8%; (second compound 10 µM, first compound 1 µM) 32.7%; (second compound 10 µM, first compound 3.16 µM) 16.1%; (second compound 10 µM, first compound 10 µM) 17.5%.

Turning to `CC(=O)O[C@H]1C(=O)[C@@]2(C)[C@H]([C@H](OC(=O)c3ccccc3)[C@]3(O)C[C@H](OC(=O)[C@H](O)[C@@H](NC(=O)c4ccccc4)c4ccccc4)C(C)=C1C3(C)C)[C@]1(OC(C)=O)CO[C@@H]1C[C@@H]2O`, the viability, T/C by setting is: (compound 0.0316 µM) 114% and 62.1% and 42.4%; (compound 0.1 µM) 98.5% and 13.8% and 13.7%; (compound 0.316 µM) 89% and 15.7% and 17%; (compound 1 µM) 4.35% and 20.7% and 17.9%; (compound 3.16 µM) 0.15% and 21.9% and 16.7%.

Regarding `COc1cc(C2c3cc4c(cc3C(OC3OC5COC(C)OC5C(O)C3O)C3COC(=O)C23)OCO4)cc(OC)c1O` (stereo unspecified), the viability, T/C was 111% and 82.8% and 104% (compound 0.0316 µM); 90.5% and 97% and 92.2% (compound 0.1 µM); 111% and 90.5% and 98.7% (compound 0.316 µM); 99.6% and 110% and 104% (compound 1 µM); 61.1% and 67.3% and 96.7% (compound 3.16 µM); 56.5% and 50% and 72.2% (compound 10 µM). For the same molecule, for the setting “curve of compound”, the IC50 is above 10 µM.

As for `O=C(c1cc(Cc2n[nH]c(=O)c3ccccc23)ccc1F)N1CCN(C(=O)C2CC2)CC1`, the viability, T/C is, setting by setting: (compound 0.0316 µM) 98.7% and 97.4% and 108%; (compound 0.1 µM) 111% and 100% and 110%; (compound 0.316 µM) 100% and 98.7% and 102%; (compound 1 µM) 93.8% and 105% and 109%; (compound 3.16 µM) 116% and 100% and 111%; (compound 10 µM) 106% and 82.9% and 90.7%. In addition, where the note is “curve of compound”, the IC50 was above 10 µM.

Take `CN(C)c1ccc(Nc2c3ccc(NC(=O)CCN4CCCC4)cc3nc3cc(NC(=O)CCN4CCCC4)ccc23)cc1`: the viability, T/C (compound 0.1 µM) is 96.9% [middle of 12 runs] and the viability, T/C (compound 3.16 µM) was 99.2% [middle of 12 runs]. Moreover, where the note is “compound alone, run of 04/22/2024”, the IC50 was above 10 µM.

Regarding `CC(C)(O)C1CCC(Nc2ccc3ncc(-c4cccc(C(F)(F)F)c4)n3n2)CC1` (stereo unspecified), the viability, T/C runs as follows: (compound 0.0316 µM) 95.4% and 108% and 93.2%; (compound 0.1 µM) 77.4% and 81.7% and 98.5%; (compound 0.316 µM) 107% and 80.8% and 81.9%; (compound 1 µM) 96.5% and 87.1% and 71.6%; (compound 3.16 µM) 101% and 33.2% and 13.8%; (compound 10 µM) 95% and 42.3% and 22.1%. The IC50 (curve of compound) was > 10 µM and 2.38 µM and 1.59 µM.
